According to patent US10393751B2, “Specific peptide binders to proteins identified via systematic discovery, maturation and extension process” (Roche […], Inc., priority 2015, dated 2019):

Target: streptavidin (Streptomyces avidinii, UniProt P22629)
Experiment: Surface Plasmon Resonance (Biacore X100) of synthesized peptides on immobilized streptavidin
Type: binding
Settings: for Kd / KD (equilibrium dissociation constant, kd/ka) / kon / koff: SPR; for kon: read-out: Ka (association rate constant); for koff: read-out: Kd (dissociation rate constant)
Source text: A selection of streptavidin peptide binders listed in Table 15 were synthesized using standard column-based synthesis techniques by UW Biotechnology center (Madison, Wis.) or by Peptide2.0 (Chantilly, Va.) at 98-99% purity. Strep-tag II peptide NH2-SAWSHPQFEK-COOH was purchased from IBA GmbH (Goettingen, Germany). Synthesized peptides were then characterized by Surface Plasmon Resonance (SPR) to identify binding characteristics including the association rate constant (ks), dissociation rate constant (kd), and equilibrium dissociation rate constant (kd/ka=KD). In one aspect, SPR experiments were performed by using Biacore X100 instrument (GE Healthcare). Preliminarily, 60 μl of 100 μg/ml streptavidin in 10 mM Na-acetate, pH5.0 was immobilized to flow cell 2 (Fc2) of a sensor chip CM5 (GE Healthcare) using Amine Coupling Kit (GE Healthcare) at 20° C. for 6 min. Peptide stock solutions were prepared at 5 or 10 mM concentration in water and diluted in HBS-EP+ (GE Healthcare) buffer before SPR experiments. Peptide binding was performed in a multiple kinetics mode using HBS-EP+ as a running buffer and 0.2 M NaCl, 10 mM NaOH or 10 mM HCl-glycine, […] as regeneration buffer. Binding kinetics parameters were calculated with Biacore X100 software.

[1] = KD of peptide-streptavidin complex, restated in text from Table 15
[2] = streptavidin immobilized on CM5 chip, HBS-EP+ running buffer
[3] = KD (equilibrium dissociation constant, kd/ka), streptavidin immobilized on CM5 chip, HBS-EP+ running buffer

streptavidin, sequence (P22629 25-183, species assumed): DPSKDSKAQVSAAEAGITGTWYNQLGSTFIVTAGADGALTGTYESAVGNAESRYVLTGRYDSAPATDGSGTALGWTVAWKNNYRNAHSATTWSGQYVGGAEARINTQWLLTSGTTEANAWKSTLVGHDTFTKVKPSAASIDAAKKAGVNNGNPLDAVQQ

| Substance | KD (equilibrium dissociation constant, kd/ka) [2] | kon [2] [M⁻¹ s⁻¹] | KD as compared with the Strep-Tag II peptide (SEQ ID NO:233) (result in words) | other results |
| --- | --- | --- | --- | --- |
| H-RDPAPAWAHGGG-NH2 [NH2-RDPAPAWAHGGG-amide] | 4.66 µM | 14900 |  | Kd [1]: ~4.66 µM; change in KD as compared with the parent peptide (parent peptide DPAPAWAHGG (SEQ ID NO:242)): ≥ 100 fold |
| H-ADYLAEYHGG-OH [NH2-ADYLAEYHGG-COOH] |  |  |  | Kd [3]: 96 ± 5 µM; Kd [1]: ~96 µM |
| GNSFDDWLASKG [NH2-GNSFDDWLASKG-amide] | Irreversible |  |  | binding as compared with the parent peptide NSFDDWLAKGG (result in words): irreversible binding |
| H-AFDYLAQYHGG-NH2 [NH2-AFDYLAQYHGG-amide] |  | 23300 |  | koff [2]: 0.0354 s⁻¹ |
| H-EWVHPQFEQKAK-NH2 [NH2-EWVHPQFEQKAK-amide] |  |  | decreased KD |  |
| H-DPAPAWAHGG-OH [NH2-DPAPAWAHGG-COOH] |  |  |  | Kd [3]: > 500 µM |
| H-AFPDYLAEYHGG-NH2 [NH2-AFPDYLAEYHGG-amide] | 0.043 µM | 30100 |  | koff [2]: 0.00128 s⁻¹; KD rank among the streptavidin peptide binders in Table 15 (result in words): lowest KD |
| H-WTHPQFEQK-OH [NH2-WTHPQFEQK-COOH] |  |  | decreased KD |  |
| H-WTHPQFEQPKA-NH2 [NH2-WTHPQFEQPKA-amide] |  |  | decreased KD |  |
